Data on 2 substances can be found in patent US20220111044A1, “WHOLE CELL TUMOR VACCINES AND METHODS OF USE THEROF” (CHILDREN'S NATIONAL MEDICAL CENTER, priority 2019, published 2022).

The test system of one assay is ApoE. The experiment in a line: IFNγ ELISA of splenocytes cocultured with Myc-suppressed irradiated B16 cells with ApoE agonist or anti-ApoE antibody. In kind it is cell-based, mouse. Here is the method:
IFNγ was measured at 48 hours of culture (pg/ml). S: splenocytes; NS: naïve splenocytes; VS: vaccinated splenocytes; S1S: splenocytes dissected from survivor mouse; Treated: B16 cells expose to 0.25 μM BET/0.25 μM JQ1 for 4 days.
IFNγ production was quantified by ELISA at 48 hours.

In assay [1] the test system is PD-L1 on Neuro2a and AgN2a cells. The experiment in a line: PD-L1 surface expression after IFNγ stimulation, mouse neuroblastoma cell lines (flow cytometry). In kind it is cell-based. The source says: (§1) The expression of PD-L1 on human neuroblastoma cell lines SY5Y and SK-N-SH (non-NMYC amplified) had similar changes with exposure to IFNγ. […] Representative tumors were dissected from naïve mice (I, V, IX, and XIII) and from mice after receipt of Id2kd vaccine (II, VI, X, and XIV), Id2kd plus PD-L1 antibody (III, VII, XI, and XV), and Id2kd plus CTLA-4 antibody (IV, VIII, XII, and XVI). Hematoxylin and eosin (H&E) staining (I±VIII) and immunofluorescence double staining (IX-XVI) for CD3 and PD-L1 were performed. The nuclei were stained with 4′,6-diamidino-2-phenylindole (DAPI). Representative micrographs from each cohort are shown. Areas of necrotic tissues are marked with black broken lines and coincide with areas of inflammatory cell infiltrates. […]
(§2) FIGS. 5A and 5B show PD-L1 is expressed at 3.7-fold-lower levels on aggressive mouse neuroblastoma cell line AgN2a, as evidenced by flow cytometry (FIG. 5A) and real-time quantitative PCR (RT-qPCR) (p<0.005, Student t test; FIG. 5B). […]
Cells from mouse tumor digests and mouse splenocytes were stained with the fluorescently conjugated antibodies described above. […] Data were analyzed using the FlowJo program (Treestar, Ashland, Oreg.). […]
(§3) A possible explanation may be the differential constitutive expression of PD-L1 by tumor cells. […] The response of PD-L1 expression to IFNγ stimulation was also determined.

Assay [2] relates to PD-L1 on SK-N-SH, SH-SY5Y and IMR-32 cells. The experiment in a line: PD-L1 expression after IFNγ stimulation, human neuroblastoma cell lines. In kind it is cell-based.
Source text: as §1, with “infiltrates. Panel 1 (I-IV) and panel 3 (IX-XII) are 40× and 100× original magnification, respectively.” for “infiltrates.”
as §2, §3

In the case of “LRVRLASHLRKLRKRLL (SEQ ID NO: 1) (COG133) [ApoE agonist peptide fragment]”, the “IFNγ production, fold reduction” value in the assay on ApoE (0.3, 3 and 9 μM, 48 hours, ELISA, FIG. 10A) worked out at 6 fold reduction. Further, the “IFNγ secretion from splenocytes” value with ApoE (48 hours of culture, FIGS. 10A and 10B) was “significantly suppressed in a dose dependent manner”. In the assay on ApoE (co-culture with vaccinated splenocytes), the “TNFα and Rantes production” value is on record as “repressed”.
As for IFNγ, the PD-L1 up-regulation entry is listed as “failed to up-regulate PD-L1” in assay [1] (AgN2a, highest concentrations tested) and “failed to up-regulate PD-L1” in assay [2] (MYCN-amplified IMR-32, highest concentrations tested). In assay [1] (Neuro2a, 24 hours of stimulation), the PD-L1 surface expression result is “increase in a dose-dependent manner”. The PD-L1 expression result in assay [2] (SK-N-SH and SH-SY5Y (non-MYCN amplified), increasing doses) is “rises markedly”.
